Common to all, as to assay: α-Gal A activity in lysates of transfected HEK-293 cells ± migalastat (HEK assay)
What all share (format): cell-based

The target in test [1] is T1, α-Gal A mutant form V124G (Homo sapiens, UniProt P06280, V124G).
T1 construct: expressed in transfected cells; host or cells: HEK-293
T1 sequence (P06280 32-429 V124G): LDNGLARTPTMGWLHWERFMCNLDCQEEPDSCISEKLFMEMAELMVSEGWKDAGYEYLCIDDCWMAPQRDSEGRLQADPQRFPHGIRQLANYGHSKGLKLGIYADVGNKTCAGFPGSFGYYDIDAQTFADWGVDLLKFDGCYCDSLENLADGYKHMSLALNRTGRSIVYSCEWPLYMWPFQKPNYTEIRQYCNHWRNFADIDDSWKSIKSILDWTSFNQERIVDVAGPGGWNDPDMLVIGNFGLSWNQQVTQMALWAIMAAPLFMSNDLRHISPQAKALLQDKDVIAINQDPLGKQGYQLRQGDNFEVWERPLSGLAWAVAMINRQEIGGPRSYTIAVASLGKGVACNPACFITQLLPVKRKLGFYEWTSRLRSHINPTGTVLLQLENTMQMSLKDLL
The procedure, abridged:
(§1)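 Activity is reported as nmol of free 4-MU released per mg protein per hour (nmol/mg/hr).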

Test [2] deals with T2, α-Gal A mutant form D165N (Homo sapiens, UniProt P06280, D165N).
T2 construct: expressed in transfected cells; host or cells: HEK-293
T2 sequence (P06280 32-429 D165N): T1 sequence (P06280 32-429 V124G) with G93V, D134N
The procedure, abridged:
as §1

Test [3] concerns the target T3, α-Gal A mutant form S276T (Homo sapiens, UniProt P06280, S276T).
T3 construct: expressed in transfected cells; host or cells: HEK-293
T3 sequence (P06280 32-429 S276T): T1 sequence (P06280 32-429 V124G) with G93V, S245T
The essentials: as §1

Test [4] addresses T4, α-Gal A mutant form W209R (Homo sapiens, UniProt P06280, W209R).
T4 construct: expressed in transfected cells; host or cells: HEK-293
T4 sequence (P06280 32-429 W209R): T1 sequence (P06280 32-429 V124G) with G93V, W178R
The essentials: as §1

In test [5] the target is T5, α-Gal A mutant form L394P (Homo sapiens, UniProt P06280, L394P).
T5 construct: expressed in transfected cells; host or cells: HEK-293
T5 sequence (P06280 32-429 L394P): T1 sequence (P06280 32-429 V124G) with G93V, L363P
The procedure, abridged: as §1

Where [6] appears, read: 10 μM migalastat minus baseline.
[7] abbreviates: HEK-293 lysates, 10 μM migalastat 5 days, mean ± SEM.

Where a chain is given by its changes, count along the chain named.

As for `OC[C@H]1NC[C@H](O)[C@@H](O)[C@H]1O` [migalastat, (2R,3S,4R,5S)-2-(hydroxymethyl) piperdine-3,4,5-triol], the “Absolute increase (% WT)” value in test [1] (setting [6]) was 6.4 % WT; in test [2] (setting [6]), 34 % WT; in test [3] (setting [6]) it was 8.3 % WT; in test [4] (setting [6]) it was 17.5 % WT; in test [5] (setting [6]) it was 7.2 % WT. Also, the “10 μM migalastat α-Gal A activity” value worked out at 4316 ± 432 nmol/mg/h in test [1] (setting [7]); 10562 ± 1017 nmol/mg/h in test [2] (setting [7]); 4104 ± 439 nmol/mg/h in test [3] (setting [7]); 28729 ± 1293 nmol/mg/h in test [4] (setting [7]); 7749 ± 582 nmol/mg/h in test [5] (setting [7]). Further, the “10 μM migalastat α-Gal A activity (% WT)” value is reported as 10.7 ± 1^ % WT in test [1] (setting [7]); 40 ± 2.7 % WT in test [2] (setting [7]); 9.6 ± 0.9 % WT in test [3] (setting [7]); 81.1 ± 4.6 % WT in test [4] (setting [7]); 22.3 ± 2.4 % WT in test [5] (setting [7]). For the same molecule, the Relative increase came out at 6.86 in test [2] (10 μM migalastat ÷ baseline), 7.5 in test [3] (10 μM migalastat ÷ baseline), 1.25 in test [4] (10 μM migalastat ÷ baseline) and 1.52 in test [5] (10 μM migalastat ÷ baseline).

The values are drawn from patent US20230136297A1, “Methods Of Treating Fabry Disease In Patients Having A Mutation In The GLA Gene” (Amicus Therapeutics, Inc., priority 2020, published 2023).
